Measurements as given in patent US5015661A, “Chromanes and their pharmaceutical compositions and methods” (Hoffmann-La Roche Inc., priority 1989, dated 1991).

What follows are compounds tested against superoxide-dependent, iron-promoted lipid peroxidation of native rat heart cardiac lipid liposomes (assay: Lipid peroxidation inhibition (in vitro testing of antiperoxidative agents, ANTI-OX), hypoxanthine-xanthine oxidase-Fe3+.ADP, rat cardiac liposomes, MDA equivalents). Details: 60 min, 37° C., screened at 1.0 μM, IC50 determined if inhibition ≥ 50%, read-out: ANTI-OX IC-50.
Assay type: biochemical
Protocol: The test system employs hypoxanthine-xanthine oxidase (XO)-Fe^3+. ADP as the free radical generator and purified, native rat-heart membrane phosphoglyceride in Hepes-KCl buffer, pH 7.4, as the substrate. Inhibition of superoxide-dependent, iron-promoted lipid peroxidation in the linear reaction phase (after 1 hour of reaction) is measured as the net formation of thiobarbituric acid (TBA)-reactive material. In this system, the TBA-reactive material, isolated by HPLC, is exclusively (>95%) malondialdehyde (MDA), a fragmentation end-product arising from fatty acyl hydroperoxides and cyclic endoperoxides. […]
a) Isolation and purification of Rat Cardiac Lipid
Conscious male Sprague-Dawley rats (~275g) maintained on a normal rodent diet were decapitated. The hearts were rapidly removed and perfused via the aorta with ice-cold 10 mM Hepes buffer, pH 7.4. The aorta and atria were removed, and the ventricular tissue was blotted and weighed (wet weight). The hearts were minced on ice with scissors and finally homogenized (100 mg tissue/ml ice-cold buffer) for 15 seconds (3×5 seconds) with a Tekmar Tissumizer at "maximal" setting. The homogenate was filtered through 4-ply cheesecloth, and homogenate lipids were extracted and purified by a modified Bligh-Dyer procedure (M.D. Marshall and M. Kates, Biochem. Biophys. Acta 260, 558 (1972). The cardiac lipids were stored in CHCl3 under nitrogen at -20° C. […]
b) Preparation of Cardiac Liposomes
Liposomes were prepared from extracted and purified, native rat heart cardiac lipid and were used as substrate for free-radical attack. Cardiac lipid (in CHCl3) was placed in a glass flask and evaporated to dryness under nitrogen at room temperature; the flask was gently rotated during evaporation to yield a thin, dry lipid film. The lipid was taken up in 10 mM Hepes-0.145M KCl, pH 7.4, and was resuspended by indirect an aerobic sonification for 15 minutes at room temperature. The liposome suspension was used immediately. […]
c) preparation of Fe^3+ -ADP Chelate
A chelate was formed in Hepes-KCl buffer between Fe^3+ (1.0mM FeCl3, final concentration) and ADP (10mM, final concentration) at pH 7.4 with stirring at room temperature. Chelation was allowed to proceed for 90 minutes prior to use. The chelate was prepared fresh for each days experiments to ensure iron solubility, effective chelation, and valence state. […]
d) Thiobarbituric Acid Reaction or Determination of Malondialdehvde Equivalents Malondialdehyde (MDA) equivalents were measured as thiobarbituric acid (TBA)-reactive material by the following modification of published methods. The reaction mixture. prepared fresh daily, contained water: BHT ([…] BHT in absolute ethanol): TBA (1.5% TBA in 0.2M Tris, pH 7.0) in the volume ratio 1:1:5. To each 1.0 ml of peroxidation reaction assayed (see below), 0.35 ml reaction mixture was added. After thorough mixing, the tubes were incubated in an 80° C. shaking water bath for 30 minutes. After this time, the tubes were plunged into an ice water bath, and the reaction was immediately stopped with 0.5 ml ice-cold 91% TCA followed by 2.0 ml CHCl3 After centrifugation for 30 minutes at 2000 rpm in a Sorval HL-8 rotor (4° C.), the absorbance of the washed, pink upper phase was read at 532 nm. A standard curve (0.8-40.0 nmol MDA) was run with every assay. For each curve, MDA was freshly prepared by acidification of 1,1,3,3 -tetraethoxypropane with 75% TCA-2.3N HCl (0.15 ml acid mixture with 1.0 ml suitably diluted tetraethoxypropane). Computer-assisted regression analysis of the standard curve was used to quantify the molar amounts of MDA equivalents in the experimental samples. […]
e) Lipid peroxidation Reaction
Cardiac liposomes were subjected to superoxidedependent. iron-promoted peroxidation in glass vessels to avoid the well-known antioxidant effects of many common polymerizing agents used to fabricate plastic labware. […]

SMILES	IC50
Cc1c(C)c2c(c(C)c1O)CCC(C)(C#Cc1ccccc1)O2 (racemic) [Example 1, rac-3,4-Dihydro-2,5,7,8-tetramethyl-2-(phenylethynyl)-2H-1-benzopyran-6-ol]	0.65 µM
Cc1c(C)c2c(c(C)c1O)CCC(C)(C#Cc1cccs1)O2 (racemic) [Example 4, rac-3,4-Dihydro-2,5,7,8-tetramethyl-2-[(2-thienyl)ethynyl]-2H-1-benzopyran-6-ol]	0.9 µM
Cc1c(C)c2c(c(C)c1O)CCC(C)(C#Cc1cccnc1)O2 (racemic) [Example 14, rac-3,4-Dihydro-2,5,7,8-tetramethyl-2-[(3-pyridinyl)ethynyl]-2H-1-benzopyran-6-ol]	0.6 µM
Cc1c(C)c2c(c(C)c1O)CCC(C)(C#Cc1ccccn1)O2 (racemic) [Example 15, rac-3,4-Dihydro-2,5,7,8-tetramethyl1-2-[(2-pyridinyl)ethynyl]-2H-1-benzopyran-6-ol]	> 1 µM
Cc1c(C)c2c(c(C)c1O)CCC(C)(C#Cc1csc3ccccc13)O2 (racemic) [Example 16, rac-[2-(Benzo[b]thiophen-3-yl)ethynyl]-3.4-dihydro-2,5,7,8-tetramethyl-2H-1-benzopyran-2H-1-benzopyran-6-ol]	0.56 µM
COc1ccc(C#CC2(C)CCc3c(C)c(O)c(C)c(C)c3O2)cc1OC(C)=O (racemic) [Example 20, rac-2-[(3-Acetyloxy-4-methoxyphenyl)ethynyl]-3.4-dihydro-2,5,7,8-tetramethyl-2H-1-benzopyran-6-ol]	> 1 µM
COc1cccc(C#CC2(C)CCc3c(C)c(O)c(C)c(C)c3O2)c1 (racemic) [Example 22, rac-3,4-Dihydro-2-(3-methoxyphenyl)ethynyl)-2,5,7,8-tetra-methyl-2H-1-benzopyran-6-ol]	> 1 µM
COC(=O)c1cc(C#CC2(C)CCc3c(C)c(O)c(C)c(C)c3O2)ccc1O (racemic) [Example 23, rac-5-(3,4-Dihydro-6-hydroxy-2,5,7,8-tetramethyl-2H-1-benzopyran-2-yl)ethynyl]-2-hydroxybenzoic acid methyl ester]	0.9 µM
Cc1c(C)c2c(c(C)c1O)CCC(C)(C#Cc1ccc(-c3cccnc3)cc1)O2 (racemic) [Example 24, rac-3,4-Dihydro-2,5,7,8-tetramethyl-2-{[4-(3-pyridinyl)-phenyl]ethynyl}-2H-1-benzopyran-6-ol]	0.8 µM
Cc1c(C)c2c(c(C)c1O)CCC(C)(C#Cc1ccc(-c3ccccn3)s1)O2 (racemic) [Example 26, rac-3,4-Dihydro-2,5,7,8-tetramethyl-2-{[5-(2-pyridinyl)-2-thienyl]ethynyl}-2H-1-benzopyran-6-ol]	0.55 µM
COc1cc(C=O)cc(C#CC2(C)CCc3c(C)c(O)c(C)c(C)c3O2)c1O (racemic) [Example 28, rac-3-[(3,4-Dihydro-6-hydroxy-2,5,7,8-tetramethyl-2H-1-benzopyran-2-yl)ethynyl]-4-hydroxy-5-methoxybenzaldehyde]	> 1 µM
COc1cc(CO)cc(C#CC2(C)CCc3c(C)c(O)c(C)c(C)c3O2)c1O (racemic) [Example 29, rac-3-[(3,4-Dihydro-6-hydroxy-2,5,7,8-tetramethyl-2H-1-benzopyran-2-yl)ethynyl]-4-hydroxy-5-methoxybenzenemethanol]	> 1 µM
COc1cc(C=NO)cc(C#CC2(C)CCc3c(C)c(O)c(C)c(C)c3O2)c1O (racemic) [Example 30, rac-3-[(3,4-Dihydro-6-hydroxy-2,5,7,8-tetramethyl-2H-1-benzopyran-2yl)ethynyl]-4-hydroxy-5-methoxybenzaldehydeoxime]	> 1 µM
CCCCc1ccc(C#CC2(C)CCc3c(C)c(O)c(C)c(C)c3O2)s1 (racemic) [Example 31, rac-2-[(5-Butyl-2-thienyl)ethynyl]-3,4-dihydro-2,5,7,8-tetramethyl-2H-1-benzopyran-6-ol]	0.55 µM
Cc1c(C)c2c(c(C)c1O)CCC(C)(C#Cc1cnc3ccccc3c1)O2 (racemic) [Example 33, rac-3,4-Dihydro-2,5,7,8-tetramethyl-2-(3-quinolinylethynyl)-2H-1-benzopyran-6-ol]	0.85 µM
Cc1c(C)c2c(c(C)c1O)CCC(C)(C#Cc1cncc3ccccc13)O2 (racemic) [Example 34, rac-3,4-Dihydro-2-[(4-isoquinolinyl)ethynyl]-2,5,7,8-tetramethyl-2H-1-benzopyran-6-ol]	> 1 µM
Cc1c(C)c2c(c(C)c1O)CCC(C)(C#Cc1cccc(C(F)(F)F)c1)O2 (racemic) [Example 35, rac-2-{[3-(Trifluoromethyl)phenyl]ethynyl-3,4-dihydro-2,5,7,8-tetramethyl-2H-1-benzopyran-6-ol]	0.8 µM
Cc1c(C)c2c(c(C)c1O)CCC(C)(C#Cc1ccc(F)c(F)c1)O2 (racemic) [Example 36, rac-2-[(3,4-Difluorophenyl)ethynyl]-3,4-dihydro-2,5,7,8-tetramethyl-2H-1-benzopyran-6-ol]	> 1 µM
Cc1c(C)c2c(c(C)c1O)CCC(C)(C#Cc1cccc3ccccc13)O2 (racemic) [Example 39, rac-3,4-Dihydro-2,5,7,8-tetramethyl-2-(1-naphthyl)ethynyl-2H-1-benzopyran-6-ol]	> 1 µM
Cc1c(C)c2c(c(C)c1O)CCC(C)(C#Cc1ccccc1N)O2 (racemic) [Example 40, rac-2-[(2-Aminophenyl)ethynyl]-3,4-dihydro-2,5,7,8-tetramethyl-2H-1-benzopyran-6-ol]	> 1 µM
CC(=O)Oc1cc(C#CC2(C)CCc3c(C)c(O)c(C)c(C)c3O2)ccc1OCc1ccccc1 (racemic) [Example 41, rac-2-{[3-Acetyloxy-4-(phenylmethoxy)phenyl]ethynyl}-3,4-dihydro-2,5,7,8-tetramethyl-2H-1-benzopyran-6-ol]	0.48 µM
Cc1c(C)c2c(c(C)c1O)CCC(C)(C#Cc1ccc(OCc3ccccc3)c(O)c1)O2 (racemic) [Example 43, rac-3,4-Dihydro-2-{[3-hydroxy-4-(phenylmethoxY)phenyl]-ethynyl}-2,5,7,8-tetramethyl-2H-1-benzopyran-6-ol]	0.37 µM
Cc1c(C)c2c(c(C)c1O)CCC(C)(C#Cc1ccccc1O)O2 (racemic) [Example 50 (2-HO-phenyl), rac-3,4-Dihydro-2-[(2-hydroxyphenyl)ethynyl]-2,5,7,8-tetramethyl-2H-1-benzopyran-6-ol]	0.7 µM
Cc1c(C)c2c(c(C)c1O)CCC(C)(c1cc3ccccc3o1)O2 (racemic) [Example 50 (CH; H, H, H), rac-2-(2-Benzofuranyl)-3,4-dihydro-2,5,7,8-tetramethyl-2H-1-benzopyran-6-ol]	1 µM
Cc1ccc2oc(C3(C)CCc4c(C)c(O)c(C)c(C)c4O3)cc2n1 (racemic) [Example 51, rac-3,4-Dihydro-2-(5-methylfuro[3,2[b]pyridin-2-yl)-2,5,7,8-tetramethyl-2H-1-benzopyran-6ol]	> 1 µM
Cc1c(C)c2c(c(C)c1O)CCC(C)(c1cc3ncccc3o1)O2 (racemic) [Example 52, rac-3,4-Dihydro-2-(furo[3,2-b]pyridine-2-yl)-2,5,7,8-tetramethyl-2H-1-benzopyran-6-ol]	0.95 µM
CCCc1c(O)c(C(C)=O)cc2cc(C3(C)CCc4c(C)c(O)c(C)c(C)c4O3)oc12 (racemic) [Example 53, rac-1-2-(3,4-Dihydro-6-hydroxy-2,5,7,8-tetramethyl-2H-1-benzopyran-2-yl)-6-hydroxy-7-propylbenzofuran-5-yl]ethanone]	0.6 µM
COc1cc(CO)cc2cc(C3(C)CCc4c(C)c(O)c(C)c(C)c4O3)oc12 (racemic) [Example 55, rac-2-(3,4-Dihydro-6-hydroxy-2,5,7,8-tetramethyl-2H-1-benzopyran-2-yl)-7-methoxybenzofuran-5-methanol]	0.85 µM
